Here are results for four compounds from paper PMC5634933 (Biochemistry, 2017).

As a reminder, the Kd is the free concentration of one partner at which half of the binding sites on the other are occupied at equilibrium, for simple one-to-one binding.

Holding throughout (type): biochemical
Test [1] addresses WT pol β (Homo sapiens, UniProt P06746). The settings on record: WT; for Kd / kpol: 37 °C.
The target of another test is I260M pol β (Homo sapiens, UniProt P06746, I260M). The settings on record: for Kd / kpol: 37 °C.
In test [2] the test system is WT pol β. To be noted: D kpol WT analogue/D kpol I260M analogue.
Where [3] appears, read: A-G: misincorporation of dGTP (analogue) opposite template A.
Where [4] appears, read: I260M, A-G: misincorporation of dGTP (analogue) opposite template A.
The mark [5] stands for this setting: A-T: correct incorporation of dTTP (analogue) opposite template A.
Where [6] appears, read: I260M, A-T: correct incorporation of dTTP (analogue) opposite template A.

Where two headings read alike, the source gives them in different places.

In the case of `Nc1nc2c(ncn2[C@H]2C[C@H](O)[C@@H](COP(=O)(O)OP(=O)(O)OP(=O)(O)O)O2)c(=O)[nH]1` [A-G O, dGTP, reference compound], at WT pol β [1] (setting [3]), the “Efficiency (kpol/Kd)” value is 22 ± 8.5 M⁻¹ s⁻¹, the Kd stood at 626 ± 220 µM and the kpol is 0.014 ± 0.002 s⁻¹. Moreover, at I260M pol β (setting [4]), the “Efficiency (kpol/Kd)” value came to 18 ± 9.1 M⁻¹ s⁻¹, the Kd turned out to be 795 ± 373 µM and the kpol was found to be 0.014 ± 0.003 s⁻¹.

As for `Cc1cn([C@H]2C[C@H](O)[C@@H](COP(=O)(O)OP(=O)(O)CP(=O)(O)O)O2)c(=O)[nH]c1=O` [A-T CH2, β,γ-CH2 dTTP], at WT pol β [1] (setting [5]), the “Efficiency (kpol/Kd)” value amounted to 120000 ± 30000 M⁻¹ s⁻¹, binding was characterised by a dissociation constant (Kd) of 6.7 ± 1.8 µM and the kpol came to 0.80 ± 0.10 s⁻¹. Besides, at I260M pol β (setting [6]), the “Efficiency (kpol/Kd)” value amounted to 60000 ± 20000 M⁻¹ s⁻¹, the Kd stood at 5 ± 1.5 µM and the kpol turned out to be 0.30 ± 0.01 s⁻¹.

For the compound `Cc1cn([C@H]2C[C@H](O)[C@@H](COP(=O)(O)OP(=O)(O)OP(=O)(O)O)O2)c(=O)[nH]c1=O` [A-T O, dTTP, reference compound], the “Efficiency (kpol/Kd)” value is 1.22e+06 ± 140000 M⁻¹ s⁻¹ at WT pol β [1] (setting [5]) and 200000 ± 80000 M⁻¹ s⁻¹ on I260M pol β (setting [6]). Besides, the values for the dissociation constant (Kd) at WT pol β [1] (setting [5]) and on I260M pol β (setting [6]) were 10.5 ± 1.1 µM and 40.1 ± 15.5 µM, respectively. Further, the kpol at WT pol β [1] (setting [5]) stood at 12.8 ± 0.60 s⁻¹; at WT pol β [1] (A-T: correct incorporation of dTTP (analogue) opposite template A, listed as dTTP) it was 12.8 s⁻¹; on I260M pol β (setting [6]), 7.90 ± 1.30 s⁻¹; at I260M pol β (I260M, A-T: correct incorporation of dTTP (analogue) opposite template A, listed as dTTP), 7.9 s⁻¹. Besides, the “Kd of I260M relative to WT (fold higher)” value at I260M pol β (correct parent dTTP) is 4 fold.

On to CHCl, for which the “D kpol (analogue/parent)” value at WT pol β [1] (D kpol analogue/D kpol parent) stood at 0.9; at I260M pol β (I260M, D kpol analogue/D kpol parent) it was 1.0. Moreover, the “F (analogue/parent)” value came to 0.5 on WT pol β [1] (F analogue/F parent) and 0.6 at I260M pol β (I260M, F analogue/F parent). The “F analogue (fidelity)” value at WT pol β [1] (dTTP (correct) vs dGTP (incorrect) analogue opposite template A) was determined as 27818; on I260M pol β (I260M, dTTP (correct) vs dGTP (incorrect) analogue opposite template A), 7060. For the same compound, the “D kpol(c/i) analogue” value at WT pol β [1] (discrimination at kpol = kpol(correct)/kpol (incorrect)) amounted to 842.9; on I260M pol β (I260M, discrimination at kpol = kpol(correct)/kpol (incorrect)), 551.7. The “D kpol analogue WT/I260M” value in the test on WT pol β [2] came out at 1.5. The compound further displayed an I260M/WT analogue at I260M pol β ([F I260M(analogue)]/[F WT (analogue)]) of 0.3. Moreover, the “I260M/WT (analogue/parent)” value on I260M pol β ([F I260M(analogue/parent)]/[F WT (analogue/parent)]) is reported as 1.3.
